Holding throughout (test): isothermal titration calorimetry
Holding throughout (assay type): binding

The target in experiment [1] is T1, 3β-OH-Δ^5-6-cholesterol-5β-reductase (5βChR); putative cholesterol dehydrogenase (Limosilactobacillus fermentum, UniProt A0ABF7R4H0, F190A).
T1 sequence (A0ABF7R4H0 1-249 F190A): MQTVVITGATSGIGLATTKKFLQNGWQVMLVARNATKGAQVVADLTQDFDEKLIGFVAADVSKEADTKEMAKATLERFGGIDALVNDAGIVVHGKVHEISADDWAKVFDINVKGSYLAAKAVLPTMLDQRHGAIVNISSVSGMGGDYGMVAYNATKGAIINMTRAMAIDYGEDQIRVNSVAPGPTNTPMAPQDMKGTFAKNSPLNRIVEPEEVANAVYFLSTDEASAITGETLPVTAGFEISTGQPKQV
As to conditions: NADP+ titration; C-terminal substrate-pocket mutant.

Experiment [2] addresses T2, 3β-OH-Δ^5-6-cholesterol-5β-reductase (5βChR); putative cholesterol dehydrogenase (Limosilactobacillus fermentum, UniProt A0ABF7R4H0, M189A).
T2 sequence (A0ABF7R4H0 1-249 M189A): T1 sequence (A0ABF7R4H0 1-249 F190A) with M189A, A190F
To be noted: NADP+ titration; C-terminal substrate-pocket mutant.

The target in experiment [3] is T3, 3β-OH-Δ^5-6-cholesterol-5β-reductase (5βChR); putative cholesterol dehydrogenase (Limosilactobacillus fermentum, UniProt A0ABF7R4H0, T187A).
T3 sequence (A0ABF7R4H0 1-249 T187A): T1 sequence (A0ABF7R4H0 1-249 F190A) with T187A, A190F
To be noted: NADP+ titration; C-terminal substrate-pocket mutant.

Experiment [4] addresses T4, 3β-OH-Δ^5-6-cholesterol-5β-reductase (5βChR); putative cholesterol dehydrogenase (Limosilactobacillus fermentum, UniProt A0ABF7R4H0, Y152A).
T4 sequence (A0ABF7R4H0 1-249 Y152A): T1 sequence (A0ABF7R4H0 1-249 F190A) with Y152A, A190F
To be noted: catalytic tetrad mutant.

The target in experiment [5] is T5, 3β-OH-Δ^5-6-cholesterol-5β-reductase (5βChR); putative cholesterol dehydrogenase (Limosilactobacillus fermentum, UniProt A0ABF7R4H0, S139A).
T5 sequence (A0ABF7R4H0 1-249 S139A): T1 sequence (A0ABF7R4H0 1-249 F190A) with S139A, A190F
As to conditions: catalytic tetrad mutant.

Changes are numbered by the printed parent chain.

With `NC(=O)c1ccc[n+]([C@@H]2O[C@H](COP(=O)(O)OP(=O)(O)OC[C@H]3O[C@@H](n4cnc5c(N)ncnc54)[C@H](OP(=O)(O)O)[C@@H]3O)[C@@H](O)[C@H]2O)c1` [NADP^+], the Kd (usually the free concentration of one partner at which half of the binding sites on the other are occupied at equilibrium, for simple one-to-one binding) was 5.2 µM in experiment [1], 7.49 µM in experiment [2] and 8.77 µM in experiment [3].
For `CC(C)CCC[C@@H](C)[C@H]1CC[C@H]2[C@@H]3CC=C4C[C@@H](O)CC[C@]4(C)[C@H]3CC[C@]12C` [cholesterol], the values for the Kd in experiment [4] and in experiment [5] were 4.44 µM and 24.8 µM, respectively.

Source of the values: publication doi:10.1101/2024.06.04.597308v2 (biorxiv, 2024).
